{
  "source": "patent US7173004B2",
  "about": "“Macrocyclic isoquinoline peptide inhibitors of hepatitis C virus” (Bristol-Myers Squibb Company, priority 2003, dated 2007)",
  "note": "pEC50: −log10 of the molar value.",
  "data": [
    {"system": "HCV replicon (HCV 1b-377-neo replicon cells, Huh7)", "assay": "HCV replicon cell-based FRET assay", "conditions": "Hepatitis C virus, Huh-7", "protocol": "HCV Replion assays were utilized in the present invention, and were prepared, conducted and validated as follows:\nAn HCV replicon whole cell system was established as described by Lohmann V, Korner F, Koch J, Herian U, Theilmann L, Bartenschlager R., Science 285(5424): 110–3 (1999). This system enabled us to evaluate the effects of our HCV Protease compounds on HCV RNA replication. Briefly, using the HCV strain 1B sequence described in the Lohmann paper (Assession number: AJ238799), an HCV cDNA was synthesized by Operon Technologies, Inc. (Alameda, Calif.), and the full-length replicon was then assembled in plasmid pGem9zf(+) (Promega, Madison, Wis.) using standard molecular biology techniques. The replicon consists of (i) the HCV 5′ UTR fused to the first 12 amino acids of the capsid protein, (ii) the neomycin phosphotransferase gene (neo), (iii) the IRES from encephalomyocarditis virus (EMCV), and (iv) HCV NS3 to NS5B genes and the HCV 3′ UTR. Plasmid DNAs were linearized with ScaI and RNA transcripts were synthesized in vitro using the T7 MegaScript transcription kit (Ambion, Austin, Tex.) according to manufacturer's directions. To generate cell lines, 4×10^6 Huh-7 cells (kindly provided by R. Bartenschlager and available from Health Science Research Resources Bank, Japan Health Sciences Foundation) were electroporated (GenePulser System, Bio-Rad) with 10 microgram(“μg”) of RNA transcript and plated into 100-mm dishes. After 24 h, selective media containing 1.0 milligrams/milliliter (“mg/ml”) G418 was added and media was changed every 3 to 5 days. Approximately 4 weeks after electroporation, small colonies were visible which were isolated and expanded for further analysis. These cell lines were maintained at 37° C., 5% CO2, 100% relative humidity in DMEM (Cat# 11965-084) Gibco-BRL, Rockville, Md., with 10% heat inactivated calf serum (Sigma), 10 ml of 100× penicillin/streptomycin (Cat# 15140-122) Gibco-BRL, Rockville, Md., Geneticin (Cat# 10131-027) Gibco-BRL, Rockville, Md. at 1 mg/ml. One of the cell lines (deposited as ATCC Accession No. PTA-4583 in the American Type Culture Collection) which had approximately 3,000 copies of HCV replicon RNA/cell was used for development of the assay (HCV 1b-377-neo replicon cells).\nHuh7 cells, constitutively expressing the HCV replicon, were grown in Dulbecco's Modified Eagle Media (DMEM) containing 10% Fetal calf serum (FCS) and 1 mg/ml G418 (Gibco-BRL). Cells were seeded the night before (1.5×10^4 cells/well) in 96-well tissue-culture sterile plates. Compound and no compound controls were prepared in DMEM containing 4% FCS, 1:100 Penicillin/Streptomysin, 1:100 L-glutamine and 5% DMSO in the dilution plate (0.5% DMSO final concentration in the assay). Compound/DMSO mixes were added to the cells and incubated for 4 days at 37° C. After 4 days, cells were first assessed for cytotoxicity using alamar Blue (Trek Diagnotstic Systems) for a CC50 reading. The toxicity of compound (CC50) was determined by adding 1/10th volume of alamar Blue to the media incubating the cells. After 4 hr, the fluorescence signal from each well was read, with an excitation wavelength at 530 nm and an emission wavelength of 580 nm, using the Cytofluor Series 4000 (Perspective Biosystems). Plates were then rinsed thoroughly with Phosphate-Buffered Saline (PBS) (3 times 150 μl). The cells were lysed with 25 μl of a lysis assay reagent containing an HCV protease substrate (5× cell Luciferase cell culture lysis reagent (Promega #E153A) diluted to 1× with distilled water, NaCl added to 150 mM final, the FRET peptide diluted to 10 μM final from a 2 mM stock in 100% DMSO). The HCV protease substrate (FRET peptide; AnaSpec, Inc. cat #22991, described by Taliani et al. in Anal. Biochem. 240(2):60–67 (1996)) contains a fluorescence donor, EDANS, near one end of the peptide and an acceptor, DABCYL, near the other end. […]", "values": [
      {"smiles": "O=C(CC1CC1)NC1CCCCCC=CC2CC2(C(=O)NS(=O)(=O)C2CC2)NC(=O)C2CC(Oc3nccc4ccccc34)CN2C1=O", "note": "(stereo not drawn) [Compound 22]", "pEC50": "> 7.30"},
      {"smiles": "CCC1(S(=O)(=O)NC(=O)C23CC2C=CCOCCCC(NC(=O)NC2CCCC2)C(=O)N2CC(Oc4nccc5cc(OC)ccc45)CC2C(=O)N3)CC1", "note": "(stereo not drawn) [Compound 38]", "pEC50": "> 7.30"},
      {"smiles": "CC(C)(C)OC(=O)N[C@H]1CCCCC/C=C\\[C@@H]2C[C@@]2(C(=O)NS(=O)(=O)C2CCC2)NC(=O)[C@@H]2C[C@@H](Oc3nccc4ccccc34)CN2C1=O", "note": "[Compound 9, [4-Cyclobutanesulfonylaminocarbonyl-18-(isoquinolin-1-yloxy)-2,15-dioxo-3,16-diaza-tricyclo[14.3.0.0^4,6]nonadec-7-en-14-yl]-carbamic acid tert-butyl ester]", "pEC50": "> 7.30"},
      {"smiles": "COc1ccc2c(OC3CC4C(=O)NC5(C(=O)NS(=O)(=O)C6(C)CC6)CC5C=CCOCCCC(NC(=O)NC5CCCC5)C(=O)N4C3)nccc2c1", "note": "(stereo not drawn) [Compound 36]", "pEC50": "> 7.30"},
      {"smiles": "COc1ccc2c(OC3CC4C(=O)NC5(C(=O)NS(=O)(=O)C6CC6)CC5C=CCOCCCC(NC(=O)OCC(C)(C)C)C(=O)N4C3)nccc2c1", "note": "(stereo not drawn) [Compound 32]", "pEC50": "> 7.30"},
      {"smiles": "CC(=O)NC1CCCCCC=CC2CC2(C(=O)NS(=O)(=O)C2CC2)NC(=O)C2CC(Oc3nccc4ccccc34)CN2C1=O", "note": "(stereo not drawn) [Compound 26]", "pEC50": "6.30 to 7.30"},
      {"smiles": "COc1ccc2c(OC3CC4C(=O)NC5(C(=O)NS(=O)(=O)C6CC6)CC5C=CCCCSCC(NC(=O)OCC(C)(C)C)C(=O)N4C3)nccc2c1", "note": "(stereo not drawn) [Compound 75]", "pEC50": "> 7.30"},
      {"smiles": "CC(C)S(=O)(=O)NC(=O)[C@@]12C[C@H]1/C=C\\CCCCC[C@H](NC(=O)OC(C)(C)C)C(=O)N1C[C@H](Oc3nccc4ccccc34)C[C@H]1C(=O)N2", "note": "[Compound 3, [18-(Isoquinolin-1-yloxy)-2,15-dioxo-4-(propane-2-sulfonylaminocarbonyl)-3,16-diaza-tricyclo-[14.3.0.0^4,6]nonadec-7-en-14-yl]-carbamic acid tert-butyl ester]", "pEC50": "6.30 to 7.30"},
      {"smiles": "COc1ccc2c(OC3CC4C(=O)NC5(C(=O)NS(=O)(=O)C6CC6)CC5C=CCOCCCC(NC(=O)NC(C)(C)C)C(=O)N4C3)nccc2c1", "note": "(stereo not drawn) [Compound 34]", "pEC50": "> 7.30"},
      {"smiles": "COC(=O)N[C@H]1CCCCC/C=C\\[C@@H]2C[C@@]2(C(=O)NS(=O)(=O)C2CC2)NC(=O)[C@@H]2C[C@@H](Oc3nccc4ccccc34)CN2C1=O", "note": "[Compound 12, [4-Cyclopropanesulfonylaminocarbonyl-18-(isoquinolin-1-yloxy)-2,15-dioxo-3,16-diaza-tricyclo[14.3.0.0^4,6]nonadec-7-en-14-yl]-carbamic acid methyl ester]", "pEC50": "> 7.30"},
      {"smiles": "CCC1(S(=O)(=O)NC(=O)C23CC2C=CCCCOC(C)C(NC(=O)OCC(C)(C)C)C(=O)N2CC(Oc4nccc5cc(OC)ccc45)CC2C(=O)N3)CC1", "note": "(stereo not drawn) [Compound 71]", "pEC50": "6.30 to 7.30"},
      {"smiles": "COc1ccc2c(OC3CC4C(=O)NC5(C(=O)NS(=O)(=O)C6CC6)CC5C=CCCCCCC(NC(=O)N5CCCC5)C(=O)N4C3)nccc2c1", "note": "(stereo not drawn) [Compound 60]", "pEC50": "> 7.30"},
      {"smiles": "CC1(OC(=O)NC2CCCCCC=CC3CC3(C(=O)NS(=O)(=O)C3CC3)NC(=O)C3CC(Oc4nccc5ccccc45)CN3C2=O)CC1", "note": "(stereo not drawn) [Compound 59]", "pEC50": "> 7.30"},
      {"smiles": "O=C(N[C@H]1CCCCC/C=C\\[C@@H]2C[C@@]2(C(=O)NS(=O)(=O)C2CC2)NC(=O)[C@@H]2C[C@@H](Oc3nccc4ccccc34)CN2C1=O)O[C@H]1CCOC1", "note": "[Compound 15, [4-Cyclopropanesulfonylaminocarbonyl-18-(isoquinolin-1-yloxy)-2,15-dioxo-3,16-diaza-tricyclo[14.3.0.0^4,6]nonadec-7-en-14-yl]-carbamic acid tetrahydro-furan-3-yl ester]", "pEC50": "> 7.30"},
      {"smiles": "CC1(OC(=O)N[C@H]2CCCCC/C=C\\[C@@H]3C[C@@]3(C(=O)NS(=O)(=O)C3CC3)NC(=O)[C@@H]3C[C@@H](Oc4nccc5ccccc45)CN3C2=O)CCC1", "note": "[Compound 56, [(Z)-(1S,4R,14S,18R)-4-cyclopropanesulfonylaminocarbonyl-18-(isoquinolin-1-yloxy)-2,15-dioxo-3,16-diaza-tricyclo[14.3.0.0^4,6]nonadec-7-en-14-yl]-carbamic acid 1-methyl-cyclobutyl ester]", "pEC50": "> 7.30"}
    ]}
  ]
}
